Legend:
[1] = Repeated intravitreal injection toxicology/toxicokinetics over nine months in cynomolgus monkeys; assay type: in vivo
Experimental: Preclinical studies in monkeys were performed to assess the safety and pharmacology of pegcetacoplan when injected intravitreally. Intravitreally administered pegcetacoplan in cynomolgus monkeys is distributed into the blood stream then further distributed and/or slowly eliminated from the body.

patients with wet AMD = test: Phase 1b open label single ascending dose clinical trial, intravitreal injection; assay type: in vivo, human
Experimental: In some embodiments a dose for intravitreal injection of a compstatin analog (e.g., comprising two compstatin analog moieties and a PEG having a molecular weight of about 40 kD) is 5 mg-20 mg. In some embodiments the dose is 10 mg. In some embodiments the dose is 10 mg, 11 mg, 12 mg, 13 mg, 14 mg, 15 mg, 16 mg, 17 mg, 18 mg, 19 mg, or 20 mg. In certain particular embodiments the dose is 15 mg. In some embodiments, any of the afore-mentioned doses is administered by intravitreal injection in a volume of between 90 and 110 microliters, e.g., in a volume of 100 microliters. In some embodiments, any of the afore-mentioned doses is administered by intravitreal injection using a 27, 28, 29, or 30 gauge needle. […] In certain embodiments a combination of dose and needle gauge that allows administration by IVT injection in 10 seconds or less is selected. In certain embodiments a combination of dose and needle that allows administration of the dose by IVT injection in 5-6 seconds, or less, is used.
A Phase 1 open label, single ascending dose clinical trial of pegcetacoplan in patients with wet AMD and receiving anti-VEGF therapy (specifically, Lucentis®, Eylea® or Avastin®), was initiated to assess safety, tolerability and PK of pegcetacoplan. In this trial, patients receive a single dose of pegcetacoplan by intravitreal injection followed by 113 days of monitoring. […]

[2] = Pharmacokinetic profile of a single intravitreal dose in monkeys; assay type: in vivo; conditions: single intravitreal dose 10 mg/eye in both eyes
patients with GA [3] = test: Phase 2 randomized sham-controlled clinical trial in GA: change in GA lesion size; assay type: in vivo, human; conditions: 15 mg intravitreal monthly or every other month for 12 months vs sham
Experimental: A randomized, single-masked, sham-controlled clinical trial of pegcetacoplan in patients with GA was conducted. 246 patients aged ≥50 years were enrolled in the trial.
Patients were randomized in a 2:2:1:1 manner to receive 15 mg pegcetacoplan (APL-2) monthly, 15 mg pegcetacoplan every other month, sham injection monthly or sham injection every other month. Patients in the pegcetacoplan arms received a dose of 15 mg of pegcetacoplan, injected into the vitreous humor in a 0.1 cc volume, monthly or every other month for 12 months followed by six months of monitoring after the end of treatment. In the sham-injection cohorts, patients received a simulated injection. The safety, tolerability, PK, and evidence of activity of multiple intravitreal injections of pegcetacoplan in patients with GA in at least one eye were assessed. The primary efficacy endpoint was change in GA lesion size from baseline to month 12. […] The adverse event profile is depicted in FIG. 3. (See also Liao et al., Ophthalmology 127:186-195 (2020).)

patients with GA [4] = test: Post hoc OCT analysis of Phase 2 trial: progression outside GA lesions (large drusen to iRORA/cRORA, iRORA to cRORA); assay type: in vivo, human; conditions: for reduction in the risk of progression to cRORA compared with sham: 12 months
Experimental: Post hoc analysis was also conducted to assess disease progression outside of GA lesions. Participants in the study (n=246) were categorized into PM (n=86), EOM (n=79), and sham (n=81) categories. Eyes with missed injections and those that developed exudative AMD (whereupon pegcetacoplan treatment was discontinued) were excluded. […] Masked readers evaluated OCT scans outside a 500-micron perimeter from the GA border adhering to classification described in Sadda et al., Ophthalmology 125:537-548 (2018)). […] SD-OCT images obtained at baseline, Month 6, and Month 12 (using the Zeiss Cirrus or 156 Heidelberg Spectralis) using 7-line raster scans (30×5, 240 μm spacing, 7 sections, ART set to 25, 1536 A-scans) and volume scans (20×20; 49 sections, 120 μm spacing, ART set to 16, 512 A-scans) were graded following the CAM criteria independently by two masked readers at the Doheny Image Reading and Research Lab (DIRRL). A senior reader (and member of the CAM group) reviewed all questionable cases flagged by the readers and also adjudicated any discrepancies between graders in order to yield a single consensus result for each case.
Main outcome measures included assessments at baseline, Month 6 and Month 12 of: a) progression from large drusen (≥40 microns height) to incomplete/complete RPE and outer retina atrophy (iRORA and/or cRORA) and b) progression from iRORA to cRORA. Specifically, the endpoints for each treatment group were: proportion of study eyes with at least one iRORA at baseline that progressed to cRORA at 6 and 12 months, and proportion of individual baseline iRORA lesions that progressed to cRORA at 6 and 12 months.
Baseline characteristics were summarized using descriptive statistics. Continuous variables, such as GA lesion size, were summarized using the number of observations, mean, standard deviation, median, minimum, and maximum. Categorical variables, such as the presence of iRORA lesion(s) at baseline, were summarized using counts and percentages. The progression of iRORA to cRORA was summarized at Months 6 and 12 at both the study eye and lesion level. For the study-eye-level summaries, the subset of eyes with at least one iRORA lesion at baseline was included. If at least one iRORA lesion was present at baseline progressed to cRORA during follow-up, the eye was counted as having progressed. The proportion of study eyes with progression was compared between each pegcetacoplan group and the sham control group using a Pearson chi-square test. P values <0.05 were considered statistically significant. Risk ratios and their corresponding 95% confidence intervals were calculated as the proportion that progressed from iRORA to cRORA in the pegcetacoplan group divided by the proportion in the sham group. For the lesion-level summaries of progression, each iRORA lesion present at baseline was assessed separately for progression to a cRORA lesion; the proportion of lesions that progressed was compared between each pegcetacoplan group and the sham control group using descriptive statistics (counts and percentages).

Substance: Poly(oxy-1,2-ethanediyl), α-hydro-ω-hydroxy-, 15,15′-diester with N-acetyl-L-isoleucyl-L-cysteinyl-L-valyl-1-methyl-L-tryptophyl-L-glutaminyl-L-α-aspartyl-L-tryptophylglycyl-L-alanyl-L-histidyl-L-arginyl-L-cysteinyl-L-threonyl-2-[2-(2-aminoethoxy)ethoxy]acetyl-N^6-carboxy-L-lysinamide cyclic (2->12)-(disulfide) [pegcetacoplan]
- intraocular or serum accumulation over multiple injections ([1]; doses up to 24.8 mg/eye in 5% dextrose, 50 or 100 μL/eye): little intraocular or serum accumulation
- full toxicological review (ophthalmological assessment, SD-OCT, electroretinography, tonometry, histopathology) ([1]; repeated intravitreal injections over nine months, doses up to 24.8 mg/eye): no evidence of pegcetacoplan-mediated changes
- serious adverse events (patients with wet AMD; initial nine patients, single intravitreal dose 5, 10 or 20 mg): no serious adverse events were reported
- tolerability (patients with wet AMD; single intravitreal dose 5 mg, 10 mg, 20 mg in 100 microliters): well tolerated
- vitreal half-life [2]: approximately 3.2 days
- apparent half-life of serum concentrations ([2]; serum): 10.4 days
- post-dose day until which serum concentrations increased ([2]; serum): 7 days
- rate of GA lesion growth (change in GA lesion size from baseline to month 12) (patients with GA [3]): reduced rate of lesion growth
- reduction in the risk of progression to cRORA compared with sham (patients with GA [4]; every other month, lesion level): 40%
- reduction in the risk of progression to cRORA compared with sham (patients with GA [4]; every other month, study-eye level): 30%
- reduction in the risk of progression to cRORA compared with sham (patients with GA [4]; monthly, lesion level): 41%
- reduction in the risk of progression to cRORA compared with sham (patients with GA [4]; monthly, study-eye level): 39%
- Relative risk of progression from iRORA to cRORA vs sham (95% CI) (patients with GA [4]; Month 6, PEOM, lesion level data): 0.51 (0.30-0.87)
- Relative risk of progression from iRORA to cRORA vs sham (95% CI) (patients with GA [4]; Month 6, PEOM, study-eye level): 0.76 (0.45-1.29)
- Relative risk of progression from iRORA to cRORA vs sham (95% CI) (patients with GA [4]; Month 6, PM, lesion level data): 0.53 (0.24-1.14)
- Relative risk of progression from iRORA to cRORA vs sham (95% CI) (patients with GA [4]; Month 6, PM, study-eye level): 0.52 (0.23-1.18)
- progression from large drusen to iRORA/cRORA (patients with GA [4]; Month 12, 15 mg monthly (PM)): 22.6%
- Relative risk of progression from iRORA to cRORA vs sham (95% CI) (patients with GA [4]; Month 12, PEOM, lesion level data): 0.60 (0.43-0.82)
- Relative risk of progression from iRORA to cRORA vs sham (95% CI) (patients with GA [4]; Month 12, PEOM, study-eye level): 0.70 (0.50-0.98)
- Relative risk of progression from iRORA to cRORA vs sham (95% CI) (patients with GA [4]; Month 12, PM, lesion level data): 0.59 (0.36-0.97)
- Relative risk of progression from iRORA to cRORA vs sham (95% CI) (patients with GA [4]; Month 12, PM, study-eye level): 0.61 (0.37-1.00)
- progression events from large drusen to iRORA/cRORA vs sham (in words) (patients with GA [4]; Month 12, monthly): relatively fewer progression events
- rate of progression from nascent GA to GA compared to sham controls (in words) (patients with GA [4]; intravitreal injections monthly or every other month): lower rate of progression from nascent GA to GA
- rate of progression of iRORA lesions to cRORA (patients with GA [4]; month 6, every other month (PEOM), lesion level): 20.0%
- progression from iRORA to cRORA, proportion of study eyes (patients with GA [4]; month 6, every other month (PEOM), study-eye level): 40.6%
- rate of progression of iRORA lesions to cRORA (patients with GA [4]; month 6, monthly (PM), lesion level): 20.7%
- progression from iRORA to cRORA, proportion of study eyes (patients with GA [4]; month 6, monthly (PM), study-eye level): 27.8%
- rate of progression of iRORA lesions to cRORA (patients with GA [4]; month 12, every other month (EOM), lesion level): 38.4%
- progression from iRORA to cRORA, proportion of study eyes (patients with GA [4]; month 12, every other month (PEOM), study-eye level): 57.6%
- rate of progression of iRORA lesions to cRORA (patients with GA [4]; month 12, monthly (PM), lesion level): 37.9%
- progression from iRORA to cRORA, proportion of study eyes (patients with GA [4]; month 12, monthly (PM), study-eye level): 50.0%
- rate of progression from iRORA to cRORA compared to sham group (in words) (patients with GA [4]; monthly or every other month): lower rate of progression from iRORA to cRORA

Reference: patent publication US20230381269A1, “METHODS OF TREATING EYE DISORDERS” (Apellis Pharmaceuticals, Inc., priority 2020, published 2023)
